Data on nine molecules can be found in patent US20110028455A1, “Indole-substituted 3-cyanopyridines As Kinase Inhibitors” (Wyeth LLC, priority 2007, published 2011).

For data set [1], the target named is T1, human PKCθ full length enzyme (Homo sapiens, UniProt Q04759).
T1 construct: human PKCθ full length enzyme (Panvera Cat# P2996); purchased Panvera P2996
Put plainly: PKCθ IMAP Assay. In kind it is biochemical. Conditions: PKCθ 1 nM; ATP 6 μM; peptide 100 nM; DMSO 5%; 25 minutes at room temperature; FP readout; read-out: PKC-Theta Mean IC50. As to the method: The materials used include the following: human PKCθ full length enzyme (Panvera Cat# P2996); substrate peptide: 5FAM-RFARKGSLRQKNV-OH (Molecular Devices, RP7032); ATP (Sigma Cat # A2383); DTT (Pierce, 20291); 5× kinase reaction buffer (Molecular Devices, R7209); 5× binding buffer A (Molecular Devices, R7282), 5× binding buffer B (Molecular Devices, R7209); IMAP Beads (Molecular Devices, R7284); and 384-well plates (Corning Costar, 3710).
The reaction buffer was prepared by diluting the 5× stock reaction buffer and adding DTT to obtain a concentration of 3.0 mM. The binding buffer was prepared by diluting the 5× binding buffer A. A master mix solution was prepared using a 90% dilution of the reaction buffer containing 2×ATP (12 uM) and 2× peptide (200 nm). Compounds were diluted in DMSO to 20× of the maximum concentration for the IC50 measurement. 27 μl of the master mix solution for each IC50 curve was added to the first column in a 384-well plate and 3 μl of 20× compound in DMSO was added to each well.
The final concentration of compound was 2× and 10% DMSO. DMSO was added to the rest of the master mix to increase the concentration to 10%. 10 μl of the master mix containing 10% DMSO was added to the rest of the wells on the plate except the 2nd column. 20 μl was transferred from the first column to the 2nd column. The compounds were serially diluted in 2:1 ratio starting from the 2nd column. A 2×(2 nM) PKCθ solution was made in the reaction buffer. 10 μl of the PKCθ solution was added to every well to achieve these final concentrations: PKCθ-1 nM; ATP-6 μM; peptide-100 nM; DMSO-5%. Samples were incubated for 25 minutes at room temperature. The binding reagent was prepared by diluting the beads in 1× binding buffer to 800:1. 50 μl of the binding reagent was added to every well and incubated for 20 minutes. FP was measured using Envision2100 (PerkinElmer Life Sciences). Wells with no ATP and wells with no enzyme were used as controls.

A short description of data set [2]: Metabolic stability in rat liver microsomes. In kind it is in vitro ADME. Conditions: 30 minutes incubation, remaining compound by HPLC, 6-Me compounds of the invention, read-out: Rat Microsome Stability of 6-Me cyanopyridine Compounds (approximate half life). The protocol:
In order to probe the metabolic stability of the compounds of the invention, a series of compounds were selected for stability testing in rat liver microsomes. A DMSO solution of each compound was incubated for 30 minutes in the presence of rat liver homogenate. The percentage of remaining compound was assessed by HPLC. An approximate half life was calculated from the percentage of remaining compound. Table II, below, illustrates a comparison of the in vitro microsomal half life of the selected compounds verses a series of related compounds lacking the C-6 alkyl group. […] It is generally accepted in the industry that improved in vitro metabolic stability frequently translates into improved in vivo metabolic stability. Improved metabolic stability may translate to increased in vivo exposure levels.
Background: Liver microsomes are a subcellular fraction often used to study metabolism.

T1 sequence (Q04759 whole entry): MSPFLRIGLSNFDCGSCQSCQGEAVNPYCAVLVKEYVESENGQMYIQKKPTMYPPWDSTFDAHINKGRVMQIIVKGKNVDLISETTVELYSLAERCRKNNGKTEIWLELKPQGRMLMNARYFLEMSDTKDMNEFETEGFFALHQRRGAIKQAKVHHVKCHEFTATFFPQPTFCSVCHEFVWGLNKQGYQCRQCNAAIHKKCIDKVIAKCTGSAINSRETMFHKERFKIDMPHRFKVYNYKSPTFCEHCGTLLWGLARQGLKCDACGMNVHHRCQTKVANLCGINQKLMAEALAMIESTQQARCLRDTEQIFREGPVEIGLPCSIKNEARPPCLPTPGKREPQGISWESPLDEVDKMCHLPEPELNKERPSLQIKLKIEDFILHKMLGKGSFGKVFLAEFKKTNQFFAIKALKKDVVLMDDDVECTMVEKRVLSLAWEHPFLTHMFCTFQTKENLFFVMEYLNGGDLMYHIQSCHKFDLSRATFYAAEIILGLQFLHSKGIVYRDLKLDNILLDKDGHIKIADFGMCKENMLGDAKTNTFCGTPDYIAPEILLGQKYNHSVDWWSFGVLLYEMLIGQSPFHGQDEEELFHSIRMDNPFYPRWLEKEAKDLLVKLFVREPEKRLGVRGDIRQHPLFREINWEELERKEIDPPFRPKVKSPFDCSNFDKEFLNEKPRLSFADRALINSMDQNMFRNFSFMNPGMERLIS

In the case of `Cc1ncc(C#N)c(Nc2ccc3[nH]ccc3c2C)c1-c1ccc(OCCN2CCN(C)CC2)cc1` [Example 14, 6-methyl-4-[(4-methyl-1H-indol-5-yl)amino]-5-{4-[2-(4-methylpiperazin-1-yl)ethoxy]phenyl}nicotinonitrile], the melting point (commonly the temperature of the solid-liquid transition) lay in the range of 183 to 184 °C. Moreover, in data set [1], the IC50 (in general, the concentration that inhibits the measured activity by half) was 31 nM. The half-life (usually how long it takes for the measured level to halve) in data set [2] was > 30 min.
Take `Cc1ncc(C#N)c(Nc2ccc3[nH]ccc3c2C)c1-c1ccc(OCCCl)cc1` [Example 12, 5-[4-(2-chloroethoxy)phenyl]-6-methyl-4-[(4-methyl-1H-indol-5-yl)amino]nicotinonitrile]: the melting point lay within 200 to 201 °C. Also, the IC50 in data set [1] was 30 nM.
For `Cc1ncc(C#N)c(Nc2ccc3[nH]ccc3c2C)c1-c1cc2ccccc2o1` [Example 11, 5-(1-benzofuran-2-yl)-6-methyl-4-[(4-methyl-1H-indol-5-yl)amino]nicotinonitrile] the same measures were 154 to 155 °C and 13 nM.
The corresponding values for `Cc1ncc(C#N)c(Nc2ccc3[nH]ccc3c2C)c1-c1cc2cc(C=O)ccc2o1` [Example 15, 5-(5-formyl-1-benzofuran-2-yl)-6-methyl-4-[(4-methyl-1H-indol-5-yl)amino]nicotinonitrile] are 168 to 169 °C and 12 nM.
For `Cc1ncc(C#N)c(Nc2cccc3[nH]ccc23)c1-c1ccc(OCCCl)cc1` [Example 13, 5-[4-(2-chloroethoxy)phenyl]-4-(1H-indol-4-ylamino)-6-methylnicotinonitrile] the same measures were 185 to 186 °C and 150 nM.
For `Cc1ncc(C#N)c(Nc2cccc3[nH]ccc23)c1-c1cc2ccccc2o1` [Example 10, 5-(1-benzofuran-2-yl)-4-(1H-indol-4-ylamino)-6-methylnicotinonitrile], the melting point was 192 to 193 °C. In data set [1], the 50% inhibitory concentration (IC50) was 113 nM.
For `COc1ccc(-c2c(C)ncc(C#N)c2Nc2cccc3[nH]ccc23)cc1OC` [Example 8, 5-(3,4-dimethoxyphenyl)-4-(1H-indol-4-ylamino)-6-methylnicotinonitrile] the same measures were 182 to 183 °C and 151 nM.
The corresponding values for `COc1ccc(-c2c(C)ncc(C#N)c2Nc2ccc3[nH]ccc3c2C)cc1OC` [Example 9, 5-(3,4-dimethoxyphenyl)-6-methyl-4-[(4-methyl-1H-indol-5-yl)amino]nicotinonitrile] are 202 to 203 °C and 67 nM.
The corresponding values for `Cc1ncc(C#N)c(Nc2ccc3[nH]ccc3c2C)c1-c1cc2cc(CN3CCN(C)CC3)ccc2o1` [Example 16, 6-methyl-4-[(4-methyl-1H-indol-5-yl)amino]-5-{5-[(4-methylpiperazin-1-yl)methyl]-1-benzofuran-2-yl}nicotinonitrile] are 218 to 220 °C and 2.7 nM.
